In US7745404B2, “Use of calcitonin and calcitonin-like peptides to treat and prevent multiple sclerosis” (Wisconsin Alumni Research Foundation, priority 2002, dated 2010):

Key:
Assay type in all cases: in vivo
[1] = test system: experimental autoimmune encephalomyelitis (EAE) in female 1α-OH KO mice; assay: EAE (murine model of MS) in female 1α-OH KO mice, Example 1
Protocol: (§1) To determine the effect of calcitonin on the murine model of MS, experimental autoimmune encephalomyelitis (EAE), 25-hydroxyvitamin D3-1α-hydroxylase knockout mice (1α-OH KO) were maintained on a purified diet containing 0.87% calcium and 1 ng 1,25-(OH)2D3 (Vit D) for two to three weeks prior to EAE immunization. EAE was induced at six to ten weeks of age by subcutaneous immunization of 200 μg of the immunodominant peptide to myelin oligodendrocyte glycoproprotein (MOG35-55).
(§2) The peptide was synthesized at University of Wisconsin Biotechnology Center using standard 9-fluorenyl-methoxy-carbonyl chemistry. The peptide was dissolved in Freund's complete adjuvant (CFA; Sigma; St. Louis, Mo.) containing 4 mg/ml of heat-inactivated Mycobacterium tuberculosis […] (Difco Laboratories; Detroit, Mich.).
(§3) Mice were injected with 200 ng of Bordetella pertussis toxin (List Biological Laboratories, Campbell, Calif.) on the day of immunization and 48 hours later. The mice were examined daily for clinical signs of EAE utilizing the following scoring system: 0, no sign; 1, limp tail; 2, hindlimb weakness; 3, hindlimb paralysis; 4, forelimb paralysis; 5, moribund or death.
(§4) Salmon calcitonin (sCT; Bachem California; Torrence, Calif.) was dissolved to a concentration of 1 mg/ml in a vehicle containing 150 mM NaCl, 1 mM HCl, and 2% heat inactivated sera. The serum used was from 1α-OH KO mice matched by sex to the group of mice receiving the treatment. SCT was chronically administered using Alzet osmotic minipumps model 1002 (Durect Corp.; Cupertino, Calif.) calibrated to deliver 0.25 μl/hour over a 15 day period.
(§5) Ten days after immunization, mice were weighed and the pumps were filled with either vehicle or sCT diluted to deliver 6 μg/kg of body weight per day to each mouse. The pumps were surgically placed subcutaneously in the upper back of mice anesthetized with 2% isofluorane. At the end of the study, successful delivery of the sCT was assessed by two methods. First, the fluid volume remaining in the pump reservoirs was measured. Second, the remaining sCT was pooled and intraperitoneally injected into 1α-knockout mice that were not included in the initial study. Serum calcium measurements were taken six hours after injection to determine if sCT maintained its bioactivity throughout the study. Blood samples were collected at multiple time-points throughout the study to monitor changes in serum calcium levels. Blood was obtained by the orbital bleed method. Approximately 150 μl was collected per mouse.
(§6) Statistical analysis was performed using the two-tailed Fisher exact probability test on incidence rates and the unpaired Student's t-test on all other measurements. Values of P<0.05 were considered statistically significant.

[2] = test system: experimental autoimmune encephalomyelitis (EAE) in male 1α-OH KO mice; assay: EAE (murine model of MS) in male 1α-OH KO mice, Example 1
Protocol: as §1, §2, §3, §4, §5, §6

[3] = test system: EAE in female C57BL6h mice; assay: EAE in female C57BL6h mice, Example 2
Protocol: To determine the effect of calcitonin on EAE in mice, female mice were maintained as described above. The strain of mouse used in this experiment was C57BL6 which was obtained from Harlan Labs and therefore should be designated C57BL6h. The only difference from the experiment above is that these mice were fed a regular chow diet (Formulab Chow 5008, PMI Labdiet).
(§7) EAE was induced as described above. Mice were injected with 200 ng of B. pertussis toxin on the day of immunization and 48 hours later.
(§8) sCT was prepared as described above. One week after immunization, mice were weighed and the pumps were filled with vehicle, 6 μg/kg of sCT per day of body weight to each mouse. The pumps were surgically placed subcutaneously in the upper back of mice anesthetized with 2% isofluorane. At the end of the study, successful delivery of the sCT was assessed by two methods. First, the fluid volume remaining in the pump reservoirs was measured. Second, the remaining sCT was pooled and intraperitoneally injected into mice that were not included in the initial study. Serum calcium measurements were taken six hours after injection to determine if sCT maintained its bioactivity throughout the study.
Mice were examined daily, for over two weeks, for clinical signs of EAE utilizing the following scoring system described above.
(§9) Blood samples were collected at multiple time-points and prepared and analyzed as described above. Likewise, statistical analysis was performed as noted above.

[4] = test system: EAE in female C57BL/6J mice; assay: EAE in female C57BL/6J mice, sCT dose levels, Example 3; details: for % Sick / Incidence / Severity / Mean Onset Day: female C57BL/6J mice, standard chow; for Incidence: animals sick/total; for Severity: EAE score 0-5; for Mean Onset Day: days post immunization
Description: To determine the effect of calcitonin on EAE in C57BL/6J mice (C57BL6 mice from Jackson Labs), female mice were maintained on a standard chow diet prior to and following EAE immunization. The C57BL6J strain was chosen primarily because it is one of the few strains susceptible to MOG-induced EAE, and also because the 1α-KO has been backcrossed into the C57BL6J strain. The diet was changed primarily because the mice being used were wild-type and no longer required the supplemented 1,25(OH)2D3 that the 1α-KO mice do. Additionally, we have typically seen higher incidence rates when animals are maintained on a regular chow diet versus the purified diet.
as §7
as §8, with “6 μg/kg of sCT per day of body weight or 60” for “6”, “into C57BL/6J” for “into”
(§10) Mice were examined daily, for over two weeks, for clinical signs of EAE utilizing the following scoring system as described above.
(§11) Blood samples were collected at multiple time-points and prepared and analyzed as described above. Likewise, statistical analysis was as performed as noted above.

[5] = test system: EAE in female C57BL/6J mice; assay: EAE in female C57BL/6J mice, calcitonin and Vit D, Example 4; details: for EAE score: female C57BL6J mice, compared to 1 ng Vit D alone (FIG. 5, Table 6); for Incidence: vehicle pump, animals sick/total
Protocol: To determine the effect of calcitonin and Vit D on EAE in C57BL/6J mice, female C57BL/6J mice were maintained on standard chow until eight weeks of age, and then switched to a purified diet containing 0.87% calcium supplemented with 1 ng or 30 ng of 1,25-(OH)2D3 for one week prior to EAE immunization.
as §7
as §8, with “vehicle or 30” for “vehicle, 6”, “μg/kg per day” for “μg/kg”, “sCT” for “sCT per day”, “into C57BL/6J” for “into”
as §10, §9

[6] = test system: EAE in female C57BL/6J mice; assay: EAE in female C57BL/6J mice, sCT started prior to immunization, Example 5
Protocol: To determine the effect of calcitonin in C57BL/6J mice on EAE prior to immunization, female mice were maintained on a standard chow diet prior to and following EAE immunization.
as §7
as §8, with “However, two days prior to” for “One week after”, “vehicle or” for “vehicle,”, “μg/kg per day” for “μg/kg”, “sCT” for “sCT per day”, “into C57BL/6J” for “into”
Mice were examined daily, for over two weeks, for clinical signs of EAE utilizing the scoring system described above.
as §9

[7] = Serum calcium in 1α-OH KO mice, Example 1; details: 6 μg/kg of calcitonin
Protocol: as §5
(§12) Collected blood samples were centrifuged at 6000 rpm for 15 minutes; followed by another 60-second spin at 14000 rpm. Serum samples were diluted in 0.1% LaCl3 and serum calcium values were measured using a Perkin Elmer atomic absorption spectrometer.

[8] = Serum calcium in female C57BL/6J mice, Example 3
Protocol: as §12, §11

[9] = Serum calcium in female C57BL/6J mice, Example 4; details: 30 ng Vit D (regardless of whether sCT was provided) compared to 1 ng Vit D
Protocol: as §12, §9

[10] = female C57BL/6J, 0.87% calcium diet with 1 ng Vit D
[11] = female C57BL/6J, 0.87% calcium diet with 30 ng Vit D

Salmon calcitonin [sCT]
% Sick ([1]; female 1α-KO mice, 0.87% calcium + 1 ng Vitamin D diet, sCT 6 μg/kg per day by minipump from ten days after immunization): 42.9% | Severity ([1]; female 1α-KO mice, 0.87% calcium + 1 ng Vitamin D diet, sCT 6 μg/kg per day by minipump, EAE score 0-5): 1.3 ± 0.6 | Mean Onset Day ([1]; female 1α-KO mice, 0.87% calcium + 1 ng Vitamin D diet, sCT 6 μg/kg per day by minipump, days post immunization): 41 ± 11 days | Incidence ([1]; female 1α-KO mice, 0.87% calcium + 1 ng Vitamin D diet, sCT 6 μg/kg per day by osmotic minipump from ten days after immunization, animals sick/total): 3/7 sick | EAE score ([1]; female 1α-OH KO mice, compared to vehicle alone (FIG. 1, Table 2)): delayed and diminished the EAE score | % Sick ([2]; male 1α-KO mice, 0.87% calcium + 1 ng Vitamin D diet, sCT 6 μg/kg per day by minipump): 28.6% | Severity ([2]; male 1α-KO mice, 0.87% calcium + 1 ng Vitamin D diet, sCT 6 μg/kg per day by minipump, EAE score 0-5): 2.5 ± 0.7 | Mean Onset Day ([2]; male 1α-KO mice, 0.87% calcium + 1 ng Vitamin D diet, sCT 6 μg/kg per day by minipump, days post immunization): 30 ± 8 days | Incidence ([2]; male 1α-KO mice, 0.87% calcium + 1 ng Vitamin D diet, sCT 6 μg/kg per day by osmotic minipump from ten days after immunization, animals sick/total): 2/7 sick | reduction in the EAE score, male versus female ([2]; male 1α-OH KO mice treated with calcitonin compared with female 1α-OH KO mice treated with calcitonin): similar, but lesser, reduction in the EAE score | EAE score ([2]; male 1α-OH KO mice, compared to vehicle alone (FIG. 2, Table 3)): lowered the EAE score | EAE score ([3]; compared to vehicle alone (FIG. 3)): delayed and diminished the EAE score | % Sick ([3]; sCT 6 μg/kg per day by minipump from one week after immunization): 25.0% | Severity ([3]; sCT 6 μg/kg per day by minipump from one week after immunization, EAE score 0-5): 2.0 ± 0.7 | Mean Onset Day ([3]; sCT 6 μg/kg per day by minipump from one week after immunization, days post immunization): 14 ± 1 days | Incidence ([3]; sCT 6 μg/kg per day by minipump from one week after immunization, table title: 0.87% calcium + 1 ng Vitamin D diet (text: regular chow), animals sick/total): 2/8 sick | EAE score ([4]; female C57BL6J mice administered 60 μg/kg of calcitonin, compared to vehicle alone (FIG. 4, Table 5)): delayed and diminished the EAE score | % Sick ([4]; 6 μg/kg sCT): 82.0% | Incidence ([4]; 6 μg/kg sCT per day by minipump from one week after immunization): 9/11 sick | Severity ([4]; 6 μg/kg sCT): 3.8 ± 0.6 | Mean Onset Day ([4]; 6 μg/kg sCT): 14 ± 3 days | % Sick ([4]; 60 μg/kg sCT): 67.0% | Incidence ([4]; 60 μg/kg sCT per day by minipump from one week after immunization): 6/9 sick | Severity ([4]; 60 μg/kg sCT): 3.5 ± 1.3 | Mean Onset Day ([4]; 60 μg/kg sCT): 16 ± 2 days | EAE score ([5]; sCT (30 μg/kg per day)): delayed and diminished the EAE score | EAE score ([6]; female C57BL6J mice administered 6 μg/kg of calcitonin from two days prior to immunization, compared to vehicle alone (FIG. 6)): delayed and diminished the EAE score | Incidence ([6]; female C57Bl/6J mice, standard chow, sCT 6 μg/kg per day by minipump from two days prior to immunization, animals sick/total): 19/20 sick | % Sick ([6]; female C57Bl/6J mice, standard chow, sCT 6 μg/kg per day from two days prior to immunization): 95.0% | Severity ([6]; female C57Bl/6J mice, standard chow, sCT 6 μg/kg per day from two days prior to immunization, EAE score 0-5): 2.9 ± 1.1 | Mean Onset Day ([6]; female C57Bl/6J mice, standard chow, sCT 6 μg/kg per day from two days prior to immunization, days post immunization): 15 ± 2 days | serum calcium levels ([7]; female 1α-OH KO mice): generally unaffected | serum calcium levels ([7]; male 1α-OH KO mice): unaffected | serum calcium levels ([8]; 6 μg/kg of calcitonin): initially lowered | serum calcium levels ([8]; 60 μg/kg of calcitonin): initially lowered

C=C1/C(=C\C=C2/CCC[C@]3(C)[C@@H]([C@H](C)CCCC(C)(C)O)CC[C@@H]23)C[C@@H](O)C[C@@H]1O [Vit D, 1α,25-dihydroxyvitamin D3]
EAE score ([5]; 30 ng Vit D): delayed and diminished the EAE score | % Sick [5, 10]: 67.0% | Incidence [5, 10]: 6/9 sick | Severity ([5]; female C57BL/6J, 0.87% calcium diet with 1 ng Vit D, EAE score 0-5): 2.9 ± 0.9 | Mean Onset Day ([5]; female C57BL/6J, 0.87% calcium diet with 1 ng Vit D, days post immunization): 15 ± 2 days | % Sick [5, 11]: 0.0% | Incidence [5, 11]: 0/8 sick | serum calcium levels [9]: elevated
